{
  "source": "BindingDB's records for doi:10.1002/cbic.201100007",
  "about": "(Yale University, 2011)",
  "target": "T1, dCTP pyrophosphatase 1 (Homo sapiens, UniProt Q9H773)",
  "T1 sequence (Q9H773 whole entry)": "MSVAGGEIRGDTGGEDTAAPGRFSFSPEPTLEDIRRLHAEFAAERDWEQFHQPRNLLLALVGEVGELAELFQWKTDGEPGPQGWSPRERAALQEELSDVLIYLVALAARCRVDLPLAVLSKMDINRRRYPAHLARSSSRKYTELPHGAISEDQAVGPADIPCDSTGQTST",
  "test": "Enzyme Assay",
  "details": "pH 7.4; 25 °C",
  "experimental": "Kinetic enzyme assays were performed in a 384-well, white plates (Nunc) on a Wallac Victor 2 plate reader using human DCTPP1 and triptolide and analogues.",
  "data": [
    {"smiles": "CC(C)[C@]12O[C@H]1[C@@H]1O[C@@]13[C@@]1(C)CCC4=C(COC4=O)[C@]1(O)C[C@@H]1O[C@@]13C2=O", "note": "[5-Hydroxytriptonide, 6]", "values": [
      {"measurement": "Ki", "value": 356, "unit": "µM"}
    ]},
    {"smiles": "CC(C)[C@]1(O)[C@H](O)[C@@H]2O[C@]23[C@]2(O[C@H]2CC2C4=C(CC[C@@]23C)C(=O)OC4)[C@@H]1O", "note": "(some centres not stated) [Triptriolide, 5]", "values": [
      {"measurement": "Ki", "value": 85, "unit": "µM"}
    ]}
  ]
}
